From patent publication US6432433B1, “Liquid biocidal composition of a formaldehyde adduct and an isothiazolone and method of use” (ISP Investments Inc., priority 2000, dated 2002)
Values joined by “and” are separate entries in the source; they are usually repeats but may differ in a detail not shown here. Equal entries are not always repeated. Where two headings read alike, the source gives them in different places.

How the values were obtained:
Format in all cases: cell-based
[1] = system: Bacillus subtilis (ATCC 27328); assay: MIC on Tryptic Soy Agar; conditions: for MIC: Bacillus subtilis, read-out: MIC end point, compound alone (QA / QB)
Experimental: (§1) The agar was inoculated to contain about 1×10^6 CFU/ml bacterial cells or fungal spores.
(§2) The MIC were taken as end points of activity. End points for the mixture of NMPFA (DMO, MBO or HMAE) and BIT were then compared with the end points for the pure active compound when employed individually.
(§3) Synergism was determined by a commonly used method described by Kull, A. C., Eisman, P. C, Sylwestrowicz ,H., D. and Mayer, R. L. (1961). Applied Microbiology, 9:538 using the ratio determined by:
(§4) Qa/QA+Qb/QB=Synergy Index (SI)
(§5) where QA is the concentration of the formaldehyde adduct in parts per million (ppm), acting alone, which produced an end point. Qa is the concentration of the formaldehyde adduct in ppm, in the mixture, which produced an end point. QB is the concentration of BIT in ppm, acting alone, which produced an end point and Qb is the concentration of BIT in ppm, in the mixture, which produced an end point.
(§6) When the sum of Qa/QA+Qb/QB is greater than one, antagonism is indicated. When the sum is equal to one, additivity is indicated.

[2] = system: Gliocladium virens (ATCC 9645); assay: MIC on Potato Dextrose Agar; conditions: for MIC: Trichoderma virens
Experimental: as §1, §2, §3, §4, §5, §6

[3] = system: Enterobacter cloacae (ATCC 13047); assay: MIC on Tryptic Soy Agar; conditions: E. cloacae; TSA, 32° C., 48 hours
Experimental: as §1, §2, §3, §4, §5, §6

[4] = system: Escherichia coli (ATCC 11229); assay: MIC on Tryptic Soy Agar; conditions: E. coli; TSA, 32° C., 48 hours
Experimental: as §1, §2, §3, §4, §5, §6

[5] = system: Pseudomonas aeruginosa (ATCC 10145); assay: MIC on Tryptic Soy Agar; conditions: P. aeruginosa; TSA, 32° C., 48 hours
Experimental: as §1, §2, §3, §4, §5, §6

[6] = system: Staphylococcus aureus (ATCC 6538); assay: MIC on Tryptic Soy Agar; conditions: S. aureus; TSA, 32° C., 48 hours
Experimental: as §1, §2, §3, §4, §5, §6

[7] = system: Aspergillus niger (ATCC 6275); assay: MIC on Potato Dextrose Agar; conditions: A. niger; PDA, 28°, 7-10 days
Experimental: as §1, §2, §3, §4, §5, §6

[8] = system: Aureobasidium pullulans (ATCC 9348); assay: MIC on Potato Dextrose Agar; conditions: A. pullulans; PDA, 28°, 7-10 days
Experimental: as §1, §2, §3, §4, §5, §6

[9] = system: Chaetomium globosum (ATCC 6205); assay: MIC on Potato Dextrose Agar; conditions: C. globosum; PDA, 28°, 7-10 days
Experimental: as §1, §2, §3, §4, §5, §6

[10] = system: Penicillium funiculosum (ATCC 11797); assay: MIC on Potato Dextrose Agar; conditions: P. funiculosum; PDA, 28°, 7-10 days
Experimental: as §1, §2, §3, §4, §5, §6

[11] = system: mixed culture of P. aeruginosa, E. cloacae, B. subtilis, B. megaterium and B. licheniformis; assay: In-can preservation of latex paint (ASTM D2574-97), two challenges; conditions: polyvinyl acrylic paint, 32° C., mixed inoculum, rechallenged after 7 days
Experimental: The efficacy of each individual compound or their combination was measured in a latex paint artificially contaminated with a mixed inoculum. The microbiological evaluations shown as examples, are based on ASTM D2574-97, “Resistance of emulsion paints in the container to the attack of microorganisms”. Briefly, paint samples (e.g. polyvinyl acrylic, PCL 717) were prepared to contain different concentrations of each compound or their mixtures in different concentrations and ratios. Each paint sample thus prepared was then inoculated with a mixed culture of P. aeruginosa, E. cloacae, B. subtilis, B. megaterium and B. licheniformis (final concentration of about 10^6 CFU/ml) and rechallenged after 7 days (final concentration of about 10^7 CFU/ml). Paint samples were incubated at 32° C. for the duration of the test and sampled for the presence of viable bacteria on TSA plates. A paint sample was considered appropriately preserved if no bacterial growth was detected after six days in both challenge assays. […]
1. The end-point activity in ppm obtained when no viable bacteria was detected after both challenges in a paint sample containing the compound A alone (QA), for compound A in the mixture (Qa), for compound B alone (QB) or for compound B in the mixture (Qb). […]
3. The calculated Synergy Index (SI), as described above

[12] = B. subtilis, TSA, 32° C., 48 hours

SMILES | MIC ([1]; ATCC27328, B. subtilis, TSA, 32° C., 48 hours) [µg/mL] | MIC ([2]; ATCC9645, G. virens, PDA, 28°, 7-10 days, read-out: MIC end point, compound alone (QA / QB)) [µg/mL] | MIC ([1]; ATCC27328, 48 h) [µg/mL] | MIC ([2]; ATCC9645, read-out: MIC end point, compound alone (QA / QB)) [µg/mL] | MIC end point, compound alone (QA / QB) [1, 12] | MIC end point, compound alone (QA / QB) [3] | MIC end point, compound alone (QA / QB) [4] | MIC end point, compound alone (QA / QB) [5] | MIC end point, compound alone (QA / QB) [6] | MIC end point, compound alone (QA / QB) [7] | MIC end point, compound alone (QA / QB) [8] [ppm] | MIC end point, compound alone (QA / QB) [9] | MIC end point, compound alone (QA / QB) ([2]; G. virens, PDA, 28°, 7-10 days) | MIC end point, compound alone (QA / QB) [10] [ppm] | End-point activity (no viable bacteria detected after both challenges), compound alone (QA / QB) [11]
CC1(C)COCN1 [DMO, 4,4-dimethyloxazolidine] | 385 | 770 |  |  |  |  |  |  |  |  |  |  |  |  | 
OCCNCO [HMAE, 2-[(hydroxymethyl)amino]ethanol] |  |  | 250 | 1000 |  |  |  |  |  |  |  |  |  |  | 
CC(O)CN(C)CC(C)OCO (centres unmarked) [NMPFA, N-methyl-2-hydroxymethyleneoxypropyl-2′-hydroxypropylamine] |  |  |  |  | 500 ppm | 1,000 ppm | 1,000 ppm | 1,000 ppm | 1,000 ppm | 1,000 ppm | 500 | >2,000 ppm | >2,000 ppm | 250 | 1,000 ppm
O=c1[nH]sc2ccccc12 [BIT, 1,2-benzisothiazolin-3-one, reference compound] |  |  |  |  | 25.0 ppm and 25 ppm | 2500 ppm | 50.0 ppm | 250.0 ppm | 50 ppm | 250 ppm | 50 | 250 ppm | 100 ppm | 25 | 170.0 ppm
